Assay results taken from US6008356A, “Pharmaceutically available protoberberine salts derivatives, and protoberberine salts derivatives, and protoberberine derivatives and salts thereof” (priority 1998, dated 1999).
Where two headings read alike, the source gives them in different places.

Legend:
C. albicans OY 003 = assay: MIC; assay type: cell-based, Candida albicans; conditions: C. albicans OY 003
C. albicans KCTC 1940 = assay: MIC; assay type: cell-based, Candida albicans; conditions: C. albicans KCTC 1940
C. albicans IFO 1385 = assay: MIC; assay type: cell-based, Candida albicans; conditions: C. albicans IFO 1385
C. albicans ATCC 28838 = assay: MIC; assay type: cell-based, Candida albicans; conditions: C. albicans ATCC 28838
C. albicans OY 019 = assay: MIC; assay type: cell-based, Candida albicans; conditions: C. albicans OY 019
C. albicans ATCC 11651 = assay: MIC; assay type: cell-based, Candida albicans; conditions: C. albicans ATCC 11651
C. albicans ATCC 10231 = assay: MIC; assay type: cell-based; conditions: Candida albicans, ATCC10231; C. albicans ATCC 10231; read-out: MIC
C. albicans U.K. = assay: MIC; assay type: cell-based; conditions: Candida albicans; C. albicans U.K.; read-out: MIC
C. glabrata = assay: MIC; assay type: cell-based; conditions: Nakaseomyces glabratus; C. glabrata; read-out: MIC
C. parapsilosis = assay: MIC; assay type: cell-based; conditions: Lodderomyces parapsilosis; C. parapsilosis; read-out: MIC
E. floccosum = assay: MIC; assay type: cell-based, Epidermophyton floccosum; conditions: E. floccosum
C. glulliermendi = assay: MIC; assay type: cell-based; conditions: C. glulliermendi; read-out: MIC
C. krusei = assay: MIC; assay type: cell-based; conditions: Pichia kudriavzevii; C. krusei; read-out: MIC
Epidermophyton floccosum = assay: Antifungal efficacy of creamy formulation against local fungal skin infection; assay type: in vivo, mouse (SKH/1, hairless, male); conditions: 0.5% cream, topical
Experimental: Specific pathogen free SKH/1 male mouse(Hairless) of which weight is 30-35 g and age is 5 weeks, was reared with sterilized water and feed for 12 night/day in the condition of 21-23° C. and of 50% relative humidity. Five mice were allocated by each group. After skin infection, each mouse was taken in separate cage. The strain of microorganism for infection(Epidermophyton floccosum) was cultivated on a flat medium of SDA(Sabouraud Dextrose Agar) for 5-7 days and after confirmation of macrocomidia, 3 ml of RPMI (Rosewell Park Memorial Institute) 1640 media per each flat medium was added thereto and then scraped well using loop to remove hyphae from media. The floating liquid was suspended briefly and then diluted with RPMI 1640 media to adjust the concentration of hyphae to 2×10^6 CFU/ml. Mouse was anesthetized and marked on back site(lumbosacral area) in a shape of circle of which diameter is 1.5 cm. Then, the inner part of marked skin was scratched with sand paper. The scratched part was covered with a filter paper to preserve inoculated microorganism for a long time and thereby stimulating the skin continuously. 0.2 ml of fungus solution of which concentration is adjusted as described above, was inoculated between the skin and filter paper. 5 Days after the inoculation, the filter paper was removed and the infection of skin was examined. The test formulations, 0.5% creamy formulations of the compounds Nos. 62 and 85, 1.0% creamy formulation of Terbinafine(Lamisile cream) and a placebo was applied on the infected areas in a same amount once a day for 5 days. The clinical evaluation on the change of the infected area in 5 days after the inoculation was performed and expressed numerically from 0 to 4. The daily change of the infected area was checked every day. The result of each group was compared with each other.
1: Mild erythema or small number of skin eruption
2: Well-demarcated erythema with scales or mild skin eruption of infected area
3: Wide area of marked skin eruption, scales, swelling or severe skin eruption with partial swelling and scales
4: The same as those of control, or severe skin eruption in entire lesion
The result was calculated as follows;
T: Average score of clinical evaluation in drug treated area
K: Average score of clinical evaluation in placebo control group
Moreover, the antifungal efficacies of the 0.5% creamy formulation of the compounds Nos. 29, 35, 60, 62, 63 and 85, and 1% creamy formulation of Terbinafme (Lamisil cream), which are measured by applying the above formulations on the skin infected with Epidermophyton floccosum of mouse which is the standard animal for the test of local fungal skin infection, i.e, Specific Pathogen Free SKH/1, are described in the following Table 4.

[1] = Candida albicans, OY003, read-out: MIC
[2] = Candida albicans, KCTC1940, read-out: MIC
[3] = Candida albicans, IFO1385, read-out: MIC
[4] = Candida albicans, ATCC28838, read-out: MIC
[5] = Candida albicans, OY019, read-out: MIC
[6] = Candida albicans, ATCC11651, read-out: MIC

Compound | MIC (C. albicans OY 003; [1]) [µg/mL] | MIC (C. albicans KCTC 1940; [2]) [µg/mL] | MIC (C. albicans IFO 1385; [3]) [µg/mL] | MIC (C. albicans ATCC 28838; [4]) [µg/mL] | MIC (C. albicans OY 019; [5]) [µg/mL] | MIC (C. albicans ATCC 11651; [6]) [µg/mL] | Efficacy (%) 0 day later (Epidermophyton floccosum) [%] | Efficacy (%) 1 day later (Epidermophyton floccosum) [%] | Efficacy (%) 2 day later (Epidermophyton floccosum) [%] | Efficacy (%) 3 day later (Epidermophyton floccosum) [%] | Efficacy (%) 4 day later (Epidermophyton floccosum) [%] | Efficacy (%) 5 day later (Epidermophyton floccosum) [%] | Efficacy (%) 6 day later (Epidermophyton floccosum) [%] | Efficacy (%) 7 day later (Epidermophyton floccosum) [%] | further results
COc1ccc2c(Cc3ccc(OC(F)(F)F)cc3)c3[n+](cc2c1OC)CCc1cc2c(cc1-3)OCO2 [compound 31, 13-(4-trifluoromethoxybenzyl) berberine chloride] | 1.56 | 1.56 | 3.12 | 0.78 | 1.56 | 1.56 |  |  |  |  |  |  |  |  | 
COc1ccc2c(Cc3ccc(-c4ccccc4)cc3)c3[n+](cc2c1OC)CCc1cc2c(cc1-3)OCO2 [compound 35, 13-(4-phenylbenzyl)berberine chloride] | 0.78 | 0.78 | 6.25 | 1.56 | 1.56 | 0.78 | 0 | 36.0 | 57.9 | 68.4 | 72.2 | 74.0 | 75.4 | 76.8 | MIC (C. albicans ATCC 10231): 6.25 µg/mL; MIC (C. albicans U.K.): 12.5 µg/mL; MIC (C. glabrata): > 100 µg/mL; MIC (C. parapsilosis): > 100 µg/mL; MIC (E. floccosum; Epidermophyton floccosum, read-out: MIC): 12.5 µg/mL; MIC (C. glulliermendi): 12.5 µg/mL; MIC (C. krusei): 3.12 µg/mL
C=Cc1ccc(Cc2c3[n+](cc4c(OC)c(OC)ccc24)CCc2cc4c(cc2-3)OCO4)cc1 [compound 60, 13-(4-vinylbenzyl)berberine chloride] | 6.25 | 6.25 | 25 | 3.12 | 12.5 | 6.25 | 0 | 20.0 | 32.0 | 36.0 | 48.6 | 51.5 | 58.6 | 60.5 | 
COc1ccc2c(Cc3ccc(C(C)(C)C)cc3)c3[n+](c(O)c2c1OC)CCc1cc2c(cc1-3)OCO2.[Cl-] [compound 64, 8-hydroxy-13-(4-t-butylbenzyl) berberine chloride] |  |  |  |  |  |  |  |  |  |  |  |  |  |  | MIC (C. albicans OY 003): 6.25 µg/mL; MIC (E. floccosum): > 100 µg/mL; MIC (C. albicans KCTC 1940): 12.5 µg/mL; MIC (C. albicans IFO 1385): 25 µg/mL; MIC (C. albicans ATCC 28838): 3.125 µg/mL; MIC (C. albicans OY 019): 0.4 µg/mL; MIC (C. albicans ATCC 11651): 3.125 µg/mL

The next lines start with results.

MIC (C. albicans OY 003; [1]) [µg/mL] | MIC (C. albicans KCTC 1940; [2]) [µg/mL] | MIC (C. albicans IFO 1385; [3]) [µg/mL] | MIC (C. albicans ATCC 28838; [4]) [µg/mL] | MIC (C. albicans OY 019; [5]) [µg/mL] | MIC (C. albicans ATCC 11651; [6]) [µg/mL] | Compound | Efficacy (%) 0 day later (Epidermophyton floccosum) [%] | Efficacy (%) 1 day later (Epidermophyton floccosum) [%] | Efficacy (%) 2 day later (Epidermophyton floccosum) [%] | Efficacy (%) 3 day later (Epidermophyton floccosum) [%] | Efficacy (%) 4 day later (Epidermophyton floccosum) [%] | Efficacy (%) 5 day later (Epidermophyton floccosum) [%] | Efficacy (%) 6 day later (Epidermophyton floccosum) [%] | Efficacy (%) 7 day later (Epidermophyton floccosum) [%] | further results
6.25 | 12.5 | 25 | 3.12 | 12.5 | 12.5 | COc1ccc2c(Cc3cccc(Oc4ccccc4)c3)c3[n+](cc2c1OC)CCc1cc2c(cc1-3)OCO2 [compound 58, 13-(3-phenoxybenzyl)berberine chloride] |  |  |  |  |  |  |  |  | 
0.78 | 1.56 | 3.12 | 0.78 | 1.56 | 0.78 | COc1cc2c(cc1OC)-c1c(Cc3ccc(C(C)(C)C)cc3)c3ccc(OC)c(OC)c3c[n+]1CC2 [compound 77, 13-(4-t-butylbenzyl)palmatine iodide] |  |  |  |  |  |  |  |  | 
